# Legend:
# Calu-6 lung cancer cells = assay: Anti-tumor activity against subcutaneously implanted Calu-6 xenograft in SCID CES1c-KO mouse model; format: in vivo, SCID CES1c-KO mice; design: key to Anti-Tumor Activity: Highly Active: A T/C<10% is considered highly active; Active: a T/C≤42% is the minimum level of anti-tumor activity; Inactive: a T/C value of >42% is inactive
# Method: In brief, ˜5×10^6 tumor cells (suspended in 1:1 media and MATRIGEL®) were subcutaneously implanted into the flank of female SCID CES1c-KO mice (Charles River Laboratories). When tumors had reached a volume of approximately 50-180 mm^3 (average 105 mm^3) on day 16, the mice were randomized and MGC018 or control vehicle were administered intravenously. In these studies, mice were administered either a single dose (1 mg/kg or 3 mg/kg, QW×1) of MGC018 or a fractionated dose of MGC018 (0.3 mg/kg or 1 mg/kg) once a week for 4 weeks (QW×4W). Vehicle was administered as a control on day 16. Tumors were measured twice weekly by orthogonal measurements with electronic calipers, with tumor volumes calculated as: (length×width×height)/2. The tumor volume (relative to control) was determined (“T/C”). A finding that the tumor volume of treated animals had decreased to ≤5 mm^3 during the study period was considered to denote a Complete Regression (“CR”) and a Partial Regression (“PR”) was defined when tumors were reduced by 50% or greater from day of dosing at any point during the study.
# A375.S2 melanoma cells = assay: Anti-tumor activity against subcutaneously implanted A375.S2 xenograft in SCID CES1c-KO mouse model; format: in vivo, SCID CES1c-KO mice
# Method: In brief, ˜5×10^6 A375.S2 tumor cells (suspended in 1:1 media and MATRIGEL®) were subcutaneously implanted into the flank of female SCID CES1c-KO mice (Charles River Laboratories). When tumors had reached a volume of approximately 70-255 mm^3 (average 124 mm^3) on day 22, the mice were randomized and MGC018 or control vehicle were administered intravenously. In these studies, mice were administered either a single dose (1 mg/kg or 3 mg/kg, QW×1) of MGC018 or a fractionated dose of MGC018 (0.3 mg/kg or 1 mg/kg) once a week for 4 weeks (QW×4W). Vehicle was administered as a control on day 22. Tumors were measured twice weekly by orthogonal measurements with electronic calipers, with tumor volumes calculated as: (length×width×height)/2. The tumor volume (relative to control) was determined (“T/C”). A finding that the tumor volume of treated animals had decreased to ≤5 mm^3 during the study period was considered to denote a Complete Regression (“CR”) and a Partial Regression (“PR”) was defined when tumors were reduced by 50% or greater from day of dosing at any point during the study.
# [1] = 0.3 mg/kg, QW × 4W, intravenous
# [2] = fractionated 0.3 and 1 mg/kg QW×4W vs single 1 or 3 mg/kg QW×1
substance,measurement,setting,value
"MGC018: B7-H3-ADC: Light and Heavy Chain of anti-B7-H3 hmAb-A (SEQ ID NO:19, 20) conjugated via maleimide, valine-citrulline, para-aminobenzyloxycarbonyl linker to seco-DUBA payload",% T/C at Day 50,Calu-6 lung cancer cells; [1],61%
same,Anti-Tumor Activity,Calu-6 lung cancer cells; [1],Inactive
same,CR (complete regression),Calu-6 lung cancer cells; [1],0/6
same,PR (partial regression),Calu-6 lung cancer cells; [1],0/6
same,% T/C at Day 50,"Calu-6 lung cancer cells; 1 mg/kg, QW × 1, intravenous",49%
same,Anti-Tumor Activity,"Calu-6 lung cancer cells; 1 mg/kg, QW × 1, intravenous",Inactive
same,CR (complete regression),"Calu-6 lung cancer cells; 1 mg/kg, QW × 1, intravenous",0/6
same,PR (partial regression),"Calu-6 lung cancer cells; 1 mg/kg, QW × 1, intravenous",0/6
same,% T/C at Day 50,"Calu-6 lung cancer cells; 1 mg/kg, QW × 4W, intravenous",17%
same,Anti-Tumor Activity,"Calu-6 lung cancer cells; 1 mg/kg, QW × 4W, intravenous",Active
same,CR (complete regression),"Calu-6 lung cancer cells; 1 mg/kg, QW × 4W, intravenous",0/6
same,PR (partial regression),"Calu-6 lung cancer cells; 1 mg/kg, QW × 4W, intravenous",0/6
same,% T/C at Day 50,"Calu-6 lung cancer cells; 3 mg/kg, QW × 1, intravenous",25%
same,Anti-Tumor Activity,"Calu-6 lung cancer cells; 3 mg/kg, QW × 1, intravenous",Active
same,CR (complete regression),"Calu-6 lung cancer cells; 3 mg/kg, QW × 1, intravenous",0/6
same,PR (partial regression),"Calu-6 lung cancer cells; 3 mg/kg, QW × 1, intravenous",0/6
same,anti-tumor activity of fractionated dose compared with single dose,Calu-6 lung cancer cells; [2],near equivalent anti-tumor activity
same,% T/C at Day 53,A375.S2 melanoma cells; [1],6%
same,CR (complete regression),A375.S2 melanoma cells; [1],0/7
same,PR (partial regression),A375.S2 melanoma cells; [1],4/7
same,% T/C at Day 53,"A375.S2 melanoma cells; 1 mg/kg, QW × 1, intravenous",5%
same,CR (complete regression),"A375.S2 melanoma cells; 1 mg/kg, QW × 1, intravenous",0/7
same,PR (partial regression),"A375.S2 melanoma cells; 1 mg/kg, QW × 1, intravenous",7/7
same,% T/C at Day 53,"A375.S2 melanoma cells; 1 mg/kg, QW × 4W, intravenous",1%
same,CR (complete regression),"A375.S2 melanoma cells; 1 mg/kg, QW × 4W, intravenous",6/7
same,PR (partial regression),"A375.S2 melanoma cells; 1 mg/kg, QW × 4W, intravenous",7/7
same,% T/C at Day 53,"A375.S2 melanoma cells; 3 mg/kg, QW × 1, intravenous",1%
same,CR (complete regression),"A375.S2 melanoma cells; 3 mg/kg, QW × 1, intravenous",7/7
same,PR (partial regression),"A375.S2 melanoma cells; 3 mg/kg, QW × 1, intravenous",7/7
same,anti-tumor activity of fractionated dose compared with single dose,A375.S2 melanoma cells; [2],near equivalent anti-tumor activity
